Measurements: patent publication US4340598A, “Hypotensive imidazole derivatives” (Takeda Chemical Industries, Ltd., priority 1979, dated 1982)
Structures can show the parent of a compound that is named as a salt.

The compounds below were run on Angiotensin II (aortic blood vessel of a rabbit) (assay: Angiotensin II antagonistic effect, inhibition of A II-induced isometric tension change of isolated rabbit aortic blood vessel). Conditions: Oryctolagus cuniculus, 0.25 h; Concn. of drug substance 10^-5 M; A II 4×10^-9 M; 15 minutes treatment; read-out: Potency of inhibition.
Format: cell-based
Procedure: Angiotensin II (hereinafter referred to briefly as A II) antagonistic effect of the compound (I) of the present invention (aortic blood vessel of a rabbit). The blood-vessel preparation and reaction were done in accordance with the method as described in "European Journal of Pharmacology", vol. 18, pp. 316 (1972). While employing A II in the concentration of 4×10^-9M, the potency of inhibition was calculated by the following equation from changes in isometric tension of the blood vessel brought about by A II and that found after treatment with a test drug substance for 15 minutes, respectively. [formula] where; T1 =Change in isometric tension of the blood vessel brought about by A II without treatment with a test drug substance (g) T2 =Change in tension found after treatment with a test drug substance (g)

Row | Structure (SMILES) | inhibition at 10 µM [%]
1 | NC(=O)Cc1c(Cl)nc(-c2ccccc2)n1Cc1ccccc1 | 20
2 | O=C(O)Cc1nc(-c2ccccc2)n(Cc2ccccc2)c1Cl | 10
3 | COC(=O)Cc1cnc(-c2ccccc2)n1Cc1ccc([N+](=O)[O-])cc1 | 38
4 | COc1ccc(-c2ncc(CC(=O)O)n2Cc2ccccc2)cc1 | 5
5 | CCCCn1c(-c2ccccc2)nc(Cl)c1CC(=O)O [1-n-butyl-4-chloro-2-phenylimidazole-5-acetic acid] | 25
6 | Cc1ccc(-c2ncc(CC(=O)O)n2Cc2ccccc2)cc1 | 5
7 | O=C(O)Cc1c(Cl)nc(-c2ccccc2)n1CCc1ccccc1 [4-chloro-2-phenyl-1-phenethylimidazole-5-acetic acid hydrochloride] | 12
8 | CN(C)c1ccc(-c2nc(Cl)c(C(N)=O)n2Cc2ccccc2)cc1 | 18
9 | O=C(O)c1c(Cl)nc(-c2ccccc2)n1Cc1ccccc1 | 5
10 | CN(C)c1ccc(-c2nc(Cl)c(CC(N)=O)n2Cc2ccccc2)cc1 | 10
11 | O=C(O)CCc1c(Cl)nc(-c2ccccc2)n1Cc1ccccc1 | 13

Same assay, conditions: Oryctolagus cuniculus, 0.25 h; Concn. of drug substance 10^-6 M; A II 4×10^-9 M; 15 minutes treatment; read-out: Potency of inhibition

Row | Structure (SMILES) | inhibition at 1 µM [%]
12 | CCCCc1nc(CC(=O)O)c(Cl)n1Cc1ccccc1 | 22
13 | O=C(O)Cc1nc(C2CCCC2)n(Cc2ccccc2)c1Cl | 10
14 | CCCCc1nc(Cl)c(CC(N)=O)n1Cc1ccccc1 [1-Benzyl-2-butyl-4-chloroimidazole-5-acetamide] | 19
15 | CCCCc1nc(CC(=O)O)c(Cl)n1Cc1ccccc1Cl | 30
